Results published in ChEMBL document CHEMBL3885861, “Open TG-GATES”.

Organism: Rattus norvegicus
Assay: Open TG-GATES - Regimen: Single
Type: toxicity, organism-based, Sprague-Dawley
Design: regimen Single, gender Male, age 6 weeks
Settings: in vivo, po, 30 mg/kg, route gavage, dose level Middle; for APTT / Bas / Eos / Fbg / Hb / Ht / Lym / MCH / MCHC / MCV / Mono / Neu / PT / Plat / RBC / Ret / WBC: tissue Blood; for KIDNEY_L / KIDNEY_R / KIDNEY_TOTAL: tissue Kidney; for LIVER: tissue Liver; for A/G / ALP / ALT / AST / BUN / CRE / Ca / Cl / DBIL / GLC / IP / K / LDH / Na / PL / RALB / TBIL / TC / TG / TP / gamma-GTP: tissue Plasma

For `CC1=C(/C=C/C(C)=C/C=C/C(C)=C/CO)C(C)(C)CCC1` [RETINOL], the TERMINAL_BW (3 h) was 204 g, the APTT (3 h) was 21.5 s and the Bas (3 h) was 0%. The Eos (3 h) was 1.2%, the Fbg (3 h) was 295.2 mg/dL and the Hb (3 h) was 13.2 g/dL. For the same compound, the Ht (3 h) was 38.6%, the Lym (3 h) was 77.6% and the MCH (3 h) was 21.6 pg. For the same compound, the MCHC (3 h) was 34.1%, the MCV (3 h) was 63.4 fL and the Mono (3 h) was 3%. For the same compound, the Neu (3 h) was 17.6%, the PT (3 h) was 15.9 s and the Plat (3 h) was 124.8 x10_4/uL. The RBC (3 h) was 609.8 x10_4/ul, the Ret (3 h) was 8.3% and the WBC (3 h) was 84.2 x10_2/uL. It also gave a KIDNEY_L (3 h) of 0.9 g, a KIDNEY_R (3 h) of 0.9 g and a KIDNEY_TOTAL (3 h) of 1.8 g. The LIVER (3 h) was 9.3 g, the A/G (3 h) was 1.3 and the ALP (3 h) was 1939.2 IU/L. It also gave an ALT (3 h) of 48.2 IU/L, an AST (3 h) of 80 IU/L and a BUN (3 h) of 13.4 mg/dL. It also gave a CRE (3 h) of 0.1 mg/dL, a Ca (3 h) of 11.3 mg/dL and a Cl (3 h) of 106.2 meq/L. The DBIL (3 h) was 0 mg/dL, the GLC (3 h) was 176.4 mg/dL and the IP (3 h) was 9 mg/dL. The K (3 h) was 4.2 meq/L, the LDH (3 h) was 231 IU/L and the Na (3 h) was 141.2 meq/L. It also gave a PL (3 h) of 165.4 mg/dL, an RALB (3 h) of 3.1 g/dL and a TBIL (3 h) of 0.004 mg/dL. For the same compound, the TC (3 h) was 83.2 mg/dL, the TG (3 h) was 153.8 mg/dL and the TP (3 h) was 5.7 g/dL. For the same compound, the gamma-GTP (3 h) was 3.6 IU/L, the TERMINAL_BW (6 h) was 195.5 g and the APTT (6 h) was 21.5 s. It also gave a Bas (6 h) of 0%, an Eos (6 h) of 0.8% and a Fbg (6 h) of 302.4 mg/dL. For the same compound, the Hb (6 h) was 13.4 g/dL, the Ht (6 h) was 38.7% and the Lym (6 h) was 77.8%. It also gave an MCH (6 h) of 21.1 pg, an MCHC (6 h) of 34.5% and an MCV (6 h) of 61.2 fL. The Mono (6 h) was 2.8%, the Neu (6 h) was 17.8% and the PT (6 h) was 15.5 s. It also gave a Plat (6 h) of 119.2 x10_4/uL, an RBC (6 h) of 633.8 x10_4/ul and a Ret (6 h) of 7.3%. The WBC (6 h) was 101.4 x10_2/uL, the KIDNEY_L (6 h) was 0.9 g and the KIDNEY_R (6 h) was 0.9 g. The KIDNEY_TOTAL (6 h) was 1.8 g, the LIVER (6 h) was 8.2 g and the A/G (6 h) was 1.2. The ALP (6 h) was 1586.8 IU/L, the ALT (6 h) was 36.2 IU/L and the AST (6 h) was 72.2 IU/L. For the same compound, the BUN (6 h) was 8.8 mg/dL, the CRE (6 h) was 0.1 mg/dL and the Ca (6 h) was 10.8 mg/dL. For the same compound, the Cl (6 h) was 107.6 meq/L, the DBIL (6 h) was 0.004 mg/dL and the GLC (6 h) was 176.8 mg/dL. It also gave an IP (6 h) of 9.8 mg/dL, a K (6 h) of 4.4 meq/L and an LDH (6 h) of 224.8 IU/L. It also gave a Na (6 h) of 142 meq/L, a PL (6 h) of 146.2 mg/dL and an RALB (6 h) of 3.1 g/dL. For the same compound, the TBIL (6 h) was 0.01 mg/dL, the TC (6 h) was 74.6 mg/dL and the TG (6 h) was 119.6 mg/dL. It also gave a TP (6 h) of 5.6 g/dL, a gamma-GTP (6 h) of 1 IU/L and a TERMINAL_BW (9 h) of 195.6 g. The APTT (9 h) was 21.7 s, the Bas (9 h) was 0% and the Eos (9 h) was 1%. The Fbg (9 h) was 317 mg/dL, the Hb (9 h) was 13.3 g/dL and the Ht (9 h) was 38.5%. It also gave a Lym (9 h) of 75.2%, an MCH (9 h) of 21.3 pg and an MCHC (9 h) of 34.5%. For the same compound, the MCV (9 h) was 61.8 fL, the Mono (9 h) was 2.8% and the Neu (9 h) was 21%. It also gave a PT (9 h) of 15.5 s, a Plat (9 h) of 115.9 x10_4/uL and an RBC (9 h) of 623.4 x10_4/ul. For the same compound, the Ret (9 h) was 7.7%, the WBC (9 h) was 94.3 x10_2/uL and the KIDNEY_L (9 h) was 0.9 g. It also gave a KIDNEY_R (9 h) of 0.9 g, a KIDNEY_TOTAL (9 h) of 1.8 g and an LIVER (9 h) of 8.3 g. It also gave an A/G (9 h) of 1.3, an ALP (9 h) of 1640.4 IU/L and an ALT (9 h) of 33 IU/L. For the same compound, the AST (9 h) was 67.4 IU/L, the BUN (9 h) was 10 mg/dL and the CRE (9 h) was 0.2 mg/dL. The Ca (9 h) was 11 mg/dL, the Cl (9 h) was 106 meq/L and the DBIL (9 h) was 0.008 mg/dL. The GLC (9 h) was 181 mg/dL, the IP (9 h) was 11.1 mg/dL and the K (9 h) was 4.2 meq/L. The LDH (9 h) was 253.4 IU/L, the Na (9 h) was 141.2 meq/L and the PL (9 h) was 136 mg/dL. For the same compound, the RALB (9 h) was 3.1 g/dL, the TBIL (9 h) was 0.014 mg/dL and the TC (9 h) was 72 mg/dL. The TG (9 h) was 82.6 mg/dL, the TP (9 h) was 5.5 g/dL and the gamma-GTP (9 h) was 1 IU/L. For the same compound, the TERMINAL_BW (24 h) was 208 g, the APTT (24 h) was 21.8 s and the Bas (24 h) was 0%. It also gave an Eos (24 h) of 0.6%, a Fbg (24 h) of 303.2 mg/dL and a Hb (24 h) of 13.1 g/dL. The Ht (24 h) was 38.6%, the Lym (24 h) was 79.4% and the MCH (24 h) was 21.5 pg. The MCHC (24 h) was 34.1%, the MCV (24 h) was 63.1 fL and the Mono (24 h) was 3%. For the same compound, the Neu (24 h) was 16.2%, the PT (24 h) was 15.9 s and the Plat (24 h) was 124 x10_4/uL. It also gave an RBC (24 h) of 612.6 x10_4/ul, a Ret (24 h) of 7.8% and a WBC (24 h) of 76.3 x10_2/uL. It also gave a KIDNEY_L (24 h) of 0.9 g, a KIDNEY_R (24 h) of 0.9 g and a KIDNEY_TOTAL (24 h) of 1.9 g. For the same compound, the LIVER (24 h) was 10.1 g, the A/G (24 h) was 1.4 and the ALP (24 h) was 1811.2 IU/L. The ALT (24 h) was 42.6 IU/L, the AST (24 h) was 75.8 IU/L and the BUN (24 h) was 16.6 mg/dL. It also gave a CRE (24 h) of 0.2 mg/dL, a Ca (24 h) of 10.8 mg/dL and a Cl (24 h) of 107.2 meq/L. It also gave a DBIL (24 h) of 0.002 mg/dL, a GLC (24 h) of 193 mg/dL and an IP (24 h) of 7.2 mg/dL. The K (24 h) was 4.2 meq/L, the LDH (24 h) was 242.4 IU/L and the Na (24 h) was 141.6 meq/L. It also gave a PL (24 h) of 148.2 mg/dL, an RALB (24 h) of 3.2 g/dL and a TBIL (24 h) of 0.006 mg/dL. For the same compound, the TC (24 h) was 74.2 mg/dL, the TG (24 h) was 114 mg/dL and the TP (24 h) was 5.6 g/dL. It also gave a gamma-GTP (24 h) of 1.2 IU/L.
